Measured values: US20260092086A1, “ANTIMICROBIAL LASSO PEPTIDES” (priority 2022, published 2026)
In brackets after ≈: the same amount, converted by molar mass. Several values for one entry are separate records, joined by “and”; a condition that tells them apart may be missing. Equal entries are not always repeated. Entries after “also recorded” stand apart in the source; their conditions may differ. Where two headings read alike, the source gives them in different places. Where a SMILES comes first, the peptide text is derived from it.

What was measured:
B. subtilis 168 = assay: Spot-on-lawn assay in M63 agar; type: cell-based, Bacillus subtilis; details: purified cloacaenodin in water
Protocol: Cloacaenodin was evaluated against several common laboratory strains as well as commercially acquired strains using a spot-on-lawn assay.^45 Strains were streaked out onto LB agar plates and incubated overnight at their recommended temperatures. A single colony was then used to inoculate an overnight culture in 5 mL of LB broth. After shaking at 250 rpm at the recommended temperature for each strain, 50 μL of the overnight culture was used to inoculate 5 mL of LB broth (volume ratio 1:100). These cultures were grown for a few hours until they reached the exponential phase (OD600˜0.4-0.6) before being added to 10 mL of soft M63 agar at a final cell density of 10^7 CFUs/mL, or 10^8 CFUs total in 10 mL. The M63 soft agar was composed of 2 g/L of (NH4)2SO4 (EMD MilliporeSigma), 13.6 g/L of KH2PO4 (Fisher), 40 mg/L of each of the 20 common amino acids, 0.2% glucose (Sigma), 0.00005% w/v thiamine hydrochloride (Sigma), and 0.65% w/v bacteriological-grade agar (Apex Bioresearch). […] Upon solidification, 10 μL of purified cloacaenodin in water at two-fold dilutions were then spotted onto the agar and allowed to dry. The plates were incubated overnight at the strains' recommended temperatures and analyzed the next morning for activity. The MIC is defined as the last dilution where a spot was visible.

Enterobacter amnigenus = type: cell-based
Protocol: (§1) For liquid inhibition assays, 5 mL LB broth was inoculated with 40-50 μL of an overnight culture of E. cloacae or E. amnigenus. […] The plate was shaken at 30° C. at 250 rpm for E. cloacae, and 37° C. at 250 rpm for E. amnigenus. The OD600 was measured at 8-hour and 16-hour increments. The MIC is defined as the lowest concentration of cloacaenodin for which growth (as assessed by the OD600) was inhibited.

[1] = system: Enterobacter cloacae ATCC 13047; type: cell-based
Protocol: as §1

[2] = system: Enterobacter cloacae UCI102; assay: MIC in M63 media (liquid); type: cell-based; details: clinical isolate Enterobacter cloacae UCI102
Protocol: as §1

[3] = system: Escherichia coli XL-1 Blue; assay: Intracellular toxicity: IPTG-induced expression from plasmid lacking cloD; type: cell-based; details: IPTG induction
Protocol: After characterizing the structure and proteolytic resistance of cloacaenodin, cloacaenodin's inhibition of bacterial growth was tested. As a preliminary test of antimicrobial activity, a version of the expression plasmid from which the cloD gene was removed was cloned, so that the lasso peptide could not be exported by the Escherichia coli upon isopropyl β-D-1-thiogalactopyranoside (IPTG)-induced expression.
Cloacaenodin variants were constructed using site-directed mutagenesis. Mutant precursor genes were amplified from the wild-type precursor in pAK2 using mutagenic primers. Following PCR amplification of the mutated precursor gene, the purified PCR product was digested and ligated into pAK2 with the EcoRI and HindIII restriction sites. For the pMP3 plasmid for deletion of the cloD gene, the D gene was first disrupted by digestion of pAK2 with BamHI and NcoI, which removed the entire cloD gene and the C-terminal portion of the cloC gene. The digested plasmid was then ligated with an insert that restored the C-terminal portion of the cloC gene. All mutants were sequence confirmed by Genewiz (now Azenta) before use.

[4] = 18 μM in pure water, 37° C., 72 hours (3 days)
Protocol: A 200 μL sample of purified ˜18 μM cloacaenodin in water was incubated at 37° C. for 72 hours. 30 μL of the sample was injected on LC-MS at 24-hour increments.

[5] = Heating assay at 95° C., LC-MS; type: physicochemical; details: 1.5 hours
Protocol: The threaded nature of the collected cloacaenodin sample was next sought to be verified, because the threaded structure is crucial to the bioactivity of lasso peptides.^50 Heat treatment of certain lasso peptides leads to their unthreading: the unthreaded species often elutes differently than the threaded peptide.^48,49 We performed a heating assay at 95° C. and noticed that after 1.5 hours ˜5% of cloacaenodin eluted at around 12.4 min instead of 10.5 min (FIGS. 7A-7B). Upon treatment with carboxypeptidase^48,49, this later eluting peak was eliminated, and various earlier-eluting peaks consistent with C-terminal truncations of 6, 9, or 10 amino acids were then observed. These truncations were not observed for the unheated cloacaenodin sample when treated with carboxypeptidase (FIGS. 7A-8B). […] This unthreaded variant in the extract may have formed because of thermal unthreading during expression and purification, exposure to organic solvents during purification, or both. To ensure that the sample we collected from the HPLC remained stable, we froze the sample immediately upon collection until lyophilization, such that the peptide was minimally kept in solution.

α-chymotrypsin = molecular target: T1, α-chymotrypsin (Bos taurus, UniProt P00766, DEL14-15/DEL147-148); assay: Protease digestion, chymotrypsin; type: in vitro ADME, bovine; details: 50 μM peptide, 25° C., about 1 hour, LC-MS
T1 construct: purchased Sigma-Aldrich; host or cells: bovine pancreas
Protocol: α-chymotrypsin from bovine pancreas (Sigma-Aldrich) was first resuspended in 1 mM HCl, 2 mM CaCl2). The enzyme was added to 50 μM peptide samples at a final enzyme concentration of about 0.04 mg/mL in a buffer of 100 mM tris(hydroxymethyl)aminomethane (Tris), 10 mM CaCl2, pH 8. The reactions were then allowed to incubate at 25° C. for about 1 hour before quenching with 1% formic acid, and an aliquot was injected onto LC-MS for analysis.

[6] = Stability of NMR sample kept at 4° C., LC-MS before and after acquisition; type: physicochemical; details: 95:5 H2O:D2O
Protocol: The structure of cloacaenodin in water was determined using two-dimensional (2D) nuclear magnetic resonance (NMR) analysis, a technique that has been successfully used to show the threaded shape of lasso peptides.^51 The possibility of cloacaenodin unthreading during the NMR acquisition was addressed by keeping the sample at 4° C. throughout acquisition. […] As an additional control, one-dimensional (1D) NMR spectra were acquired in between each 2D NMR spectrum acquisition to ensure stability of the sample (FIG. 12).
NMR studies were performed at the Princeton University Department of Chemistry NMR Facilities using a Bruker Avance III HD 800 MHz NMR spectrometer. Purified cloacaenodin was prepared at a concentration of 6.7 mg/mL (2.6 mM) in 95:5 H2O:D2O. The NMR spectra were acquired at 4° C. to minimize any cloacaenodin unthreading. A ^1H-^1H TOCSY spectrum at a mixing time of 80 ms was acquired, as well as 1H-1H NOESY spectra at 150 ms and 300 ms. Water suppression was used in the collection of all NMR data. To verify that the lasso peptide was not undergoing unthreading, 1D 1H NMR data were collected in between each 2D NMR acquisition and analyzed to see that the 1D spectra stayed consistent. […]

CC[C@H](C)[C@@H]1NC(=O)[C@H](CCCNC(=N)N)NC(=O)[C@H](CC(=O)O)NC(=O)[C@H](C(C)C)NC(=O)[C@H](CO)NC(=O)[C@H](Cc2c[nH]cn2)NC(=O)CNC(=O)CC[C@@H](C(=O)N[C@@H](Cc2ccc(O)cc2)C(=O)N[C@@H](Cc2ccccc2)C(=O)NCC(=O)N2CCC[C@H]2C(=O)N2CCC[C@H]2C(=O)NCC(=O)N[C@@H](CC(C)C)C(=O)N2CCC[C@H]2C(=O)NCC(=O)N2CCC[C@H]2C(=O)N[C@H](C(=O)N[C@@H](CC(C)C)C(=O)N[C@@H](Cc2ccccc2)C(=O)N[C@@H](Cc2ccc(O)cc2)C(=O)N[C@@H](CO)C(=O)O)C(C)C)NC(=O)[C@@H]2CCCN2C1=O [cloacaenodin] (HELM PEPTIDE1{G.H.S.V.D.R.I.P.E.Y.F.G.P.P.G.L.P.G.P.V.L.F.Y.S}$PEPTIDE1,PEPTIDE1,1:R1-9:R3$$$V2.0; C-terminus assumed)
antimicrobial activity (zones of inhibition) (B. subtilis 168): no observed activity | MIC, broth microdilution assay in M63 media (Enterobacter amnigenus): 0.23 µM (≈ 0.594 µg/mL) | MIC in M63 media ([1]; ATCC 13047): 0.94 µM (≈ 2.43 µg/mL) | MIC in M63 media ([1]; liquid, Enterobacter cloacae ATCC 13047): 0.94 µM (liquid) (≈ 2.43 µg/mL) | MIC in M63 media [2]: (agar)/230 nM | intracellular toxicity (growth of E. coli on IPTG without CloD) [3]: colonies did not appear; also recorded: can no longer grow | fraction remaining threaded (relative peak area on LC-MS) [4]: ~83% and > 80% | fraction eluting as later (unthreaded) peak after heating [5]: ~5% | proteolysis by chymotrypsin (α-chymotrypsin; listed as Threaded cloacaenodin): resistant to chymotrypsin digestion | proteolysis by chymotrypsin (α-chymotrypsin; listed as threaded cloacaenodin): remained resistant to proteolysis | threaded state after NMR acquisition [6]: remained threaded
